Test results: paper PMC6272178, “Flavonoids from Sideritis Species: Human Monoamine Oxidase (hMAO) Inhibitory Activities, Molecular Docking Studies and Crystal Structure of Xanthomicrol” (Molecules, 2015)
Where two headings read alike, the source gives them in different places.

What was measured:
hMAO-A [1] = molecular target: T1, hMAO-A (Homo sapiens, UniProt P21397); experiment: hMAO-A inhibition, fluorimetric Amplex Red assay with p-tyramine, kinetic Ki determination; format: biochemical; conditions: for Mode of hMAO-A inhibition: Lineweaver–Burk plots; for Experimental SI: SI = Ki (MAO-A)/Ki (MAO-B); for Experimental SI / Selectivity: from experimental Ki values; for Selectivity: isoform preferentially inhibited; for Ki: recombinant hMAO-A, p-tyramine substrate 0.05–0.5 mM, mean ± SEM of three experiments, read-out: Experimental Ki for MAO-A
T1 construct: purchased Sigma-Aldrich (Munich, Germany); host or cells: baculovirus-infected BTI insect cells
T1 sequence (P21397 1-527): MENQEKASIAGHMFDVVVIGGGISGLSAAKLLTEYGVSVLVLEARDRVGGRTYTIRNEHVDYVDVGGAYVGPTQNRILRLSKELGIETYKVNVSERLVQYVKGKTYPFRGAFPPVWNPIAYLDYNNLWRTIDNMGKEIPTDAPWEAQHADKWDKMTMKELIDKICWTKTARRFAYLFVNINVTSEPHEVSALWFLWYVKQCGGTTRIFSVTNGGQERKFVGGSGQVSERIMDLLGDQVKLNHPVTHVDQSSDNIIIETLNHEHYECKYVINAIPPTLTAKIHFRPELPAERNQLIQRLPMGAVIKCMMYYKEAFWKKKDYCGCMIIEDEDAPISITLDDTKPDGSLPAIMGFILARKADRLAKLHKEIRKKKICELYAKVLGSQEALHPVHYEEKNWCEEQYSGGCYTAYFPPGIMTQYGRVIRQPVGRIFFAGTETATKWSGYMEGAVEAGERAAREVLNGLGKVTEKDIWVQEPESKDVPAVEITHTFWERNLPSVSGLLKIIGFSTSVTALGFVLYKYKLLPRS

hMAO-B = molecular target: T2, hMAO-B (Homo sapiens, UniProt P27338); experiment: hMAO-B inhibition, fluorimetric Amplex Red assay with p-tyramine, kinetic Ki determination; format: biochemical; conditions: recombinant hMAO-B, p-tyramine substrate 0.05–0.5 mM, mean ± SEM of three experiments; read-out: Experimental Ki for MAO-B
T2 construct: purchased Sigma-Aldrich (Munich, Germany); host or cells: baculovirus-infected BTI insect cells
T2 sequence (P27338 1-520): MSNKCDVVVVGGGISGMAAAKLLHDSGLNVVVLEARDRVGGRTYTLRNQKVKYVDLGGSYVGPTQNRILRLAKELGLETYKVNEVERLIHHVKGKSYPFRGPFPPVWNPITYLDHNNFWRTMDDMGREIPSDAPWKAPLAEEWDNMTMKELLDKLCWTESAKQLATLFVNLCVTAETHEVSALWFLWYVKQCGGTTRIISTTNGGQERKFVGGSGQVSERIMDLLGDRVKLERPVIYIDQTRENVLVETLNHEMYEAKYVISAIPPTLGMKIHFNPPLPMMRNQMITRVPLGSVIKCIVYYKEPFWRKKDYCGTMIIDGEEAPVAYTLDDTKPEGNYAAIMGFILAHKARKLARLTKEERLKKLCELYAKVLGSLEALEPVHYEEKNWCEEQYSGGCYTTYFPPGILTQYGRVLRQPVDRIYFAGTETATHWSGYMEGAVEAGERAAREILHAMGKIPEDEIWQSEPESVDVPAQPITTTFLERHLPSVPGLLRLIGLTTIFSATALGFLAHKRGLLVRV

hMAO-A [2] = molecular target: T1, hMAO-A; experiment: Reversibility of hMAO-A inhibition, centrifugation-ultrafiltration method; format: biochemical; conditions: for inhibition at 0.5 µM: compound 0.50 μM, mean ± SEM of three experiments; for Reversibility of hMAO-A inhibition: recovery of hMAO-A activity after repeated washing
Experimental: Reversibility of the MAO inhibition with newly synthesized compounds was determined by centrifugation-ultrafiltration method previously described. Recombinant enzymes (hMAO-A or B) were incubated with a single concentration of the synthesized compounds or the reference inhibitors in a sodium phosphate buffer (0.05 M, pH 7.4) for one hour at 37 °C. An aliquot was stored at 4 °C and used for the measurement of MAO-A and -B activities. The remaining incubated sample was placed in an Ultrafree-0.5 centrifugal tube with a 30 kDa Biomax membrane and centrifuged at 9000× g for 20 min at 4 °C. The enzyme retained in the 30 kDa membrane was re-suspended in a sodium phosphate buffer at 4 °C and centrifuged two more times. After the third centrifugation, the enzyme retained in the membrane was re-suspended in sodium phosphate buffer ([…]) and an aliquot of this suspension was used for MAO-A and -B activity determination. Control experiments were performed simultaneously to determine the 100% MAO activity by replacing the compounds and standards with appropriate dilutions of the vehicles. The corresponding values of percent (%) MAO isoform inhibition was separately calculated for samples with and without repeated washing.

mouse brain MAO-A = test system: mouse brain MAO-A; parameters: method as in PMID 24218136, PMID 25142815; conditions: flavonoids from Cayratia japonica; cited from earlier work
[3] = after repeated washing (three centrifugation-ultrafiltration steps), read-out: hMAO-A Inhibition (%) After Washing
[4] = incubated one hour at 37 °C, before washing, read-out: hMAO-A Inhibition (%) Before Washing

Row | SMILES | Mode of hMAO-A inhibition (hMAO-A [1]) | Experimental SI (hMAO-A [1]) | Selectivity (hMAO-A [1]) | Ki (hMAO-A [1]) [µM] | Ki (hMAO-B) [µM] | inhibition at 0.5 µM (hMAO-A [2]; [3]) [%] | inhibition at 0.5 µM (hMAO-A [2]; [4]) [%] | Reversibility of hMAO-A inhibition (hMAO-A [2]) | IC50 (mouse brain MAO-A) [µM]
1 | COc1c(OC)c(O)c2c(=O)cc(-c3ccc(O)cc3)oc2c1OC [Compound 1, xanthomicrol] | competitive | 0.007 | MAO-A | 0.76 ± 0.03 | 99.5 ± 7.44 | 9.23 ± 0.75 | 86.5 ± 5.21 | highly reversible inhibitors | 
2 | CC(=O)OC[C@H]1O[C@@H](O[C@H]2[C@H](Oc3cc(O)c4c(=O)cc(-c5ccc(O)cc5)oc4c3O)O[C@H](CO)[C@@H](O)[C@@H]2O)[C@H](O)[C@H](O)[C@@H]1O [Compound 2, isoscutellarein 7-O-[6'''-O-acetyl-β-D-allopyranosyl-(1→2)]-β-D-glucopyranoside] |  | 0.015 | MAO-A | 1100 ± 99.2 | 75600 | 10.9 ± 0.99 | 80.2 ± 5.66 |  | 
3 | O=c1cc(-c2ccc(O)cc2)oc2cc(O)cc(O)c12 [apigenin] |  |  |  |  |  |  |  |  | 1.17

Now from value to compound, other results behind:

Row | Mode of hMAO-A inhibition (hMAO-A [1]) | Experimental SI (hMAO-A [1]) | Selectivity (hMAO-A [1]) | Ki (hMAO-A [1]) [µM] | Ki (hMAO-B) [µM] | inhibition at 0.5 µM (hMAO-A [2]; [3]) [%] | inhibition at 0.5 µM (hMAO-A [2]; [4]) [%] | Reversibility of hMAO-A inhibition (hMAO-A [2]) | SMILES | IC50 (mouse brain MAO-A) [µM]
4 |  | 0.034 | MAO-A | 2800 ± 180 | 80500 | 13.3 ± 1.09 | 74.2 ± 4.89 |  | CC(=O)OC[C@H]1O[C@@H](O[C@H]2[C@H](Oc3cc(O)c4c(=O)cc(-c5ccc(O)cc5)oc4c3O)O[C@H](COC(C)=O)[C@@H](O)[C@@H]2O)[C@H](O)[C@H](O)[C@@H]1O [Compound 3, isoscutellarein 7-O-[6'''-O-acetyl-β-D-allopyranosyl-(1→2)]-6''-O-acetyl-β-D-glucopyranoside] | 
5 | competitive | 0.086 | MAO-A | 0.54 ± 0.02 | 6.27 ± 0.36 | 8.66 ± 0.65 | 89 ± 5.02 | highly reversible inhibitors | COc1ccc(-c2cc(=O)c3c(O)c(OC)c(OC)cc3o2)cc1 [Compound 4, salvigenin] | 
6 |  |  |  |  |  | 7.89 ± 0.52 | 91.2 ± 6.33 |  | O=C(NCCN1CCOCC1)c1ccc(Cl)cc1 [Moclobemide, moclobemide, reference compound] | 
